Tests used:
[1] = system: Cabbage Looper (Trichoplusia ni) ("CL"); assay: Bioassay on Cabbage Looper (CL), 128-well diet tray assay, percent mortality; format: in vivo; details: for CL rating (percent mortality class): Cabbage Looper, 128-well diet tray assay; for pest or weed control at 50 µg/cm2: Trichoplusia ni, read-out: CL
Source text: (§1) Bioassays on Beet Armyworm (Spodoptera exigua) (“BAW”) and Cabbage Looper (Trichoplusia ni) (“CL”)
(§2) BAW has few effective parasites, diseases, or predators to lower its population. BAW infests many weeds, trees, grasses, legumes, and field crops. In various places, it is of economic concern upon asparagus, cotton, corn, soybeans, tobacco, alfalfa, sugar beets, peppers, tomatoes, potatoes, onions, peas, sunflowers, and citrus, among other plants. The Cabbage Looper is a member of the moth family Noctuidae. It is found throughout the world. It is attacks cabbage, cauliflower, broccoli, Brussel sprouts, tomatoes, cucumbers, potatoes, kale, turnips, mustard, peppers, eggplant, watermelons, melons, squash, cantaloupe, peas, beans, collards, lettuce, spinach, celery, parsley, beets, peas, alfalfa, soybeans, and cotton. This species is very destructive to plants due to its voracious consumption of leaves. In the case of cabbage, however, they feed not only on the wrapper leaves, but also may bore into the developing head. The larvae consume three times their weight in plant material daily. The feeding sites are marked by large accumulations of sticky, wet fecal material.
(§3) Consequently, because of the above factors control of these pests is important.
(§4) Certain molecules disclosed in this document were tested against BAW and CEW using procedures described in the following examples. In the reporting of the results, the “BAW & CL Rating Table” was used (See Table Section).
Bioassays on Cabbage Looper in CL
(§5) Trays were covered with a clear self-adhesive cover and held at 25° C., 14:10 light-dark for five to seven days. Percent mortality was recorded for the larvae in each well; activity in the eight wells was then averaged. The results are indicated in the table entitled “Table ABC: Biological Results” (See Table Section).

[2] = system: Beet Armyworm (Spodoptera exigua) ("BAW"); assay: Bioassay on Beet Armyworm (BAW), 128-well diet tray assay, percent mortality; format: in vivo; details: for BAW rating (percent mortality class): Beet Armyworm, 128-well diet tray assay; for pest or weed control at 50 µg/cm2: Spodoptera exigua, read-out: BAW
Source text: as §1, §2, §3, §4, §5

Structure (SMILES) | CL rating (percent mortality class) [1] | BAW rating (percent mortality class) [2] | pest or weed control at 50 µg/cm2 [1] | pest or weed control at 50 µg/cm2 [2]
CCc1ccc(C)cc1NC(=S)NC(=O)NC1CC1c1ccc(-c2ncn(-c3ccc(OC(F)(F)F)cc3)n2)cc1 (centres unmarked) [F27, N-(2-ethyl-5-methylphenyl)-N′-[2-(4-{1-[4-(trifluoromethoxy)phenyl]-1H-1,2,4-triazol-3-yl}phenyl)cyclopropyl]dicarbonimidothioic diamide] | A (50-100) | A (50-100) | – | –
Cc1ccc(C(C)C)c(NC(=S)NC(=O)NC2CC2c2ccc(-c3ncn(-c4ccc(OC(F)(F)F)cc4)n3)cc2)c1 (centres unmarked) [F28, N-[5-methyl-2-(propan-2-yl)phenyl]-N′-[2-(4-{1-[4-(trifluoromethoxy)phenyl]-1H-1,2,4-triazol-3-yl}phenyl)cyclopropyl]dicarbonimidothioic diamide] | A (50-100) | A (50-100) | – | –
CCCc1ccccc1N1C(=O)CS/C1=N\C(=O)NC1CC1c1ccc(-c2ncn(-c3ccc(OC(F)(F)F)cc3)n2)cc1 (centres unmarked) [F30, (Z)-1-(4-oxo-3-(2-propylphenyl)thiazolidin-2-ylidene)-3-(2-(4-(1-(4-(trifluoromethoxy)phenyl)-1H-1,2,4-triazol-3-yl)phenyl)cyclopropyl)urea] | A (50-100) | A (50-100) | – | –
CCc1cccc(C)c1N1C(=O)CS/C1=N\C(=O)NC1CC1c1ccc(-c2ncn(-c3ccc(OC(F)(F)F)cc3)n2)cc1 (centres unmarked) [F31, (Z)-1-(3-(2-ethyl-6-methylphenyl)-4-oxothiazolidin-2-ylidene)-3-(2-(4-(1-(4-(trifluoromethoxy)phenyl)-1H-1,2,4-triazol-3-yl)phenyl)cyclopropyl)urea] | A (50-100) | A (50-100) | – | –
Cc1cccc(C)c1N1C(=O)CS/C1=N\C(=O)NC1CC1c1ccc(-c2ncn(-c3ccc(OC(F)(F)F)cc3)n2)cc1 (centres unmarked) [F32, (Z)-1-(3-(2,6-dimethylphenyl)-4-oxothiazolidin-2-ylidene)-3-(2-(4-(1-(4-(trifluoromethoxy)phenyl)-1H-1,2,4-triazol-3-yl)phenyl)cyclopropyl)urea] | A (50-100) | A (50-100) | – | –
CCc1ccc(C)cc1N1C(=O)CS/C1=N\C(=O)NC1CC1c1ccc(-c2ncn(-c3ccc(OC(F)(F)F)cc3)n2)cc1 (centres unmarked) [F33, (Z)-1-(3-(2-ethyl-5-methylphenyl)-4-oxothiazolidin-2-ylidene)-3-(2-(4-(1-(4-(trifluoromethoxy)phenyl)-1H-1,2,4-triazol-3-yl)phenyl)cyclopropyl)urea] | A (50-100) | A (50-100) | – | –
Cc1ccc(C(C)C)c(N2CCS/C2=N\C(=O)NC2CC2c2ccc(-c3ncn(-c4ccc(OC(F)(F)F)cc4)n3)cc2)c1 (centres unmarked) [F34, (Z)-1-(3-(2-isopropyl-5-methylphenyl)thiazolidin-2-ylidene)-3-(2-(4-(1-(4-(trifluoromethoxy)-phenyl)-1H-1,2,4-triazol-3-yl)phenyl)cyclopropyl)urea] | A (50-100) | A (50-100) | – | –
Cc1ccccc1N1C(=O)CS/C1=N\C(=O)NCc1ccc(-c2ncn(-c3ccc(OC(F)(F)F)cc3)n2)cc1 [P1, (Z)-1-(4-oxo-3-(o-tolyl)thiazolidin-2-ylidene)-3-(4-(1-(4-(trifluoromethoxy)phenyl)-1H-1,2,4-triazol-3-yl)benzyl)urea] | – | – | 50 to 100% | 50 to 100%
CCc1ccccc1N1C(=O)CS/C1=N\C(=O)NCc1ccc(-c2ncn(-c3ccc(OC(F)(F)F)cc3)n2)cc1 [P2, (Z)-1-(3-(2-ethylphenyl)-4-oxothiazolidin-2-ylidene)-3-(4-(1-(4-(trifluoromethoxy)phenyl)-1H-1,2,4-triazol-3-yl)benzyl)urea] | – | – | 50 to 100% | 50 to 100%
CC(C)c1cc(F)ccc1N1C(=O)CS/C1=N\C(=O)NCc1ccc(-c2ncn(-c3ccc(OC(F)(F)F)cc3)n2)cc1 [P3, (Z)-1-(3-(4-fluoro-2-isopropylphenyl)-4-oxothiazolidin-2-ylidene)-3-(4-(1-(4-(trifluoromethoxy)phenyl)-1H-1,2,4-triazol-3-yl)benzyl)urea] | – | – | 50 to 100% | 50 to 100%
Cc1ccc(N2C(=O)CS/C2=N\C(=O)NCc2ccc(-c3ncn(-c4ccc(OC(F)(F)F)cc4)n3)cc2)c(C(C)C)c1 [P5, (Z)-1-(3-(2-isopropyl-4-methylphenyl)-4-oxothiazolidin-2-ylidene)-3-(4-(1-(4-(trifluoromethoxy)phenyl)-1H-1,2,4-triazol-3-yl)benzyl)urea] | – | – | 50 to 100% | 50 to 100%
COc1ccc(N2C(=O)CS/C2=N\C(=O)NCc2ccc(-c3ncn(-c4ccc(OC(F)(F)F)cc4)n3)cc2)c(C)c1 [P6, (Z)-1-(3-(4-methoxy-2-methylphenyl)-4-oxothiazolidin-2-ylidene)-3-(4-(1-(4-(trifluoromethoxy)phenyl)-1H-1,2,4-triazol-3-yl)benzyl)urea] | – | – | 50 to 100% | 50 to 100%
CCc1ccc(C)cc1N1C(=O)CS/C1=N\C(=O)NCc1ccc(-c2ncn(-c3ccc(OC(F)(F)F)cc3)n2)cc1 [P7, (Z)-1-(3-(2-ethyl-5-methylphenyl)-4-oxothiazolidin-2-ylidene)-3-(4-(1-(4-(trifluoromethoxy)phenyl)-1H-1,2,4-triazol-3-yl)benzyl)urea] | – | – | 50 to 100% | 50 to 100%
CCCc1ccc(C)cc1N1C(=O)CS/C1=N\C(=O)NCc1ccc(-c2ncn(-c3ccc(OC(F)(F)F)cc3)n2)cc1 [P8, (Z)-1-(3-(5-methyl-2-propylphenyl)-4-oxothiazolidin-2-ylidene)-3-(4-(1-(4-(trifluoromethoxy)phenyl)-1H-1,2,4-triazol-3-yl)benzyl)urea] | – | – | 50 to 100% | 50 to 100%
CC(C)c1ccccc1N1C(=O)CS/C1=N\C(=O)NCc1ccc(-c2ncn(-c3ccc(C(F)(F)F)cc3)n2)cc1 [P14, (Z)-1-(3-(2-isopropylphenyl)-4-oxothiazolidin-2-ylidene)-3-(4-(1-(4-(trifluoromethyl)phenyl)-1H-1,2,4-triazol-3-yl)benzyl)urea] | – | – | 50 to 100% | 50 to 100%
Cc1ccc(N2C(=O)CS/C2=N\C(=O)NCc2ccc(-c3ncn(-c4ccc(C(F)(F)F)cc4)n3)cc2)c(C(C)C)c1 [P15, (Z)-1-(3-(2-isopropyl-4-methylphenyl)-4-oxothiazolidin-2-ylidene)-3-(4-(1-(4-(trifluoromethyl)phenyl)-1H-1,2,4-triazol-3-yl)benzyl)urea] | – | – | 50 to 100% | 50 to 100%
Cc1ccc(C(C)C)c(N2/C(=N/C(=O)NCCc3ccc(-c4ncn(-c5ccc(OC(F)(F)F)cc5)n4)cc3)SCC2C)c1 (centres unmarked) [P58, (Z)-1-(3-(2-isopropyl-5-methylphenyl)-4-methylthiazolidin-2-ylidene)-3-(4-(1-(4-(trifluoromethoxy)phenyl)-1H-1,2,4-triazol-3-yl)phenethyl)urea] | – | – | 50 to 100% | 50 to 100%
Cc1ccc(C(C)C)c(N2CCCS/C2=N\C(=O)NCCc2ccc(-c3ncn(-c4ccc(OC(F)(F)F)cc4)n3)cc2)c1 [P59, (Z)-1-(3-(2-isopropyl-5-methylphenyl)-1,3-thiazinan-2-ylidene)-3-(4-(1-(4-(trifluoromethoxy)phenyl)-1H-1,2,4-triazol-3-yl)phenethyl)urea] | – | – | 50 to 100% | 50 to 100%
Cc1ccc(C(C)C)c(N2CC(C)CS/C2=N\C(=O)NCCc2ccc(-c3ncn(-c4ccc(OC(F)(F)F)cc4)n3)cc2)c1 (centres unmarked) [P64, (Z)-1-(3-(2-isopropyl-5-methylphenyl)-5-methyl-1,3-thiazinan-2-ylidene)-3-(4-(1-(4-(trifluoromethoxy)phenyl)-1H-1,2,4-triazol-3-yl)phenethyl)urea] | – | – | 50 to 100% | 50 to 100%
Cc1ccc(C(C)C)c(N2C(=O)CS/C2=N\C(=O)NC(C)C(C)c2ccc(-c3ncn(-c4ccc(OC(F)(F)F)cc4)n3)cc2)c1 (centres unmarked) [P66, (Z)-1-(3-(2-isopropyl-5-methylphenyl)-4-oxothiazolidin-2-ylidene)-3-(3-(4-(1-(4-(trifluoromethoxy)phenyl)-1H-1,2,4-triazol-3-yl)phenyl)butan-2-yl)urea] | – | – | 50 to 100% | 50 to 100%
Cc1ccccc1N1C(=O)CS/C1=N\C(=O)NCCc1cccc(-c2ncn(-c3ccc(OC(F)(F)F)cc3)n2)c1 [P74, (Z)-1-(4-oxo-3-(o-tolyl)thiazolidin-2-ylidene)-3-(3-(1-(4-(trifluoromethoxy)phenyl)-1H-1,2,4-triazol-3-yl)phenethyl)urea] | – | – | 50 to 100% | 50 to 100%
CCc1ccccc1N1C(=O)CS/C1=N\C(=O)NCCc1cccc(-c2ncn(-c3ccc(OC(F)(F)F)cc3)n2)c1 [P75, (Z)-1-(3-(2-ethylphenyl)-4-oxothiazolidin-2-ylidene)-3-(3-(1-(4-(trifluoromethoxy)phenyl)-1H-1,2,4-triazol-3-yl)phenethyl)urea] | – | – | 50 to 100% | 50 to 100%
